The source of these data is PMC7375240, “Covalent Inhibitors Allosterically Block the Activation of Rho Family Proteins and Suppress Cancer Cell Invasion” (Advanced Science, 2020).

For one assay, the target named is T1, Rac1 (Homo sapiens, UniProt P63000).
T1 construct: full length, His6-tagged (pET28a), E. coli BL21(DE3)
Kind of assay: pull-down of Rac1 with its GEF. The assay is classed as binding. Particulars: Rac1-GEF interaction (GEF probably murine Tiam1 […]-1406), pH […].

In a further assay the target is T2, Cdc42 (Homo sapiens, UniProt P60953).
T2 construct: full length, His6-tagged (pET28a), E. coli BL21(DE3)
Kind of assay: pull-down of Cdc42 with its GEF. The assay is classed as binding. To be noted: Cdc42-GEF interaction (GEF probably human intersectin1 […]-1571), pH […].

T2 sequence (P60953 whole entry): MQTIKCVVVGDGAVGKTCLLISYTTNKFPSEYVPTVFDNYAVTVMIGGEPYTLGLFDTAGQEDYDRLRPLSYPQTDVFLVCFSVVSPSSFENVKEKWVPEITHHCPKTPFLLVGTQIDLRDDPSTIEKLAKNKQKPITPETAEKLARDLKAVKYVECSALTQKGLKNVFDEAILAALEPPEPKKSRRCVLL

Consider `C=CCOC(=O)C1=CS(=O)(=O)c2ccccc21` [DC-RC-063, DC-Rhoin], for which the “pull-down of Rac1 with its GEF” value at Rac1 is “selectively inhibited the interactions between Rho family proteins (RhoA, Cdc42, and Rac1)”. Also, the “pull-down of Cdc42 with its GEF” value at Cdc42 is “selectively inhibited the interactions between Rho family proteins (RhoA, Cdc42, and Rac1)”.
